From ChEMBL document CHEMBL4732091, “Design, synthesis and biological evaluation of novel thiosemicarbazone-indole derivatives targeting prostate cancer cells” (Eur J Med Chem, 2021)
Calls of active or inactive are those of the source. The rule behind the calls is not given here.

Legend:
PC-3 [1] = experiment: Activation of MAPK signaling in human PC-3 cells assessed as increase in phosphorylated ERK 1/2 (Thr 202/Tyr 204) at 125 to 500 nM measured by Western blot assay; assay type: cell-based; settings: filed as activator, dose 125-500 nM
PC-3 [2] = experiment: Induction of apoptosis in human PC-3 cells assessed as nuclear fragmentation at 25 to 100 nM measured after 72 hrs by Hoechst staining based fluorescence microscope method; assay type: functional, cell-based; settings: dose 25-100 nM
PC-3 [3] = experiment: Induction of apoptosis in human PC-3 cells assessed as late apoptotic cells at 50 nM measured after 72 hrs by Annexin V-FITC/propidium iodide staining based flow cytometry method (reference value: 1.01 %); assay type: functional
PC-3 [4] = experiment: Induction of apoptosis in human PC-3 cells assessed as reduction in Bcl-2 expression at 25 to 100 nM measured by Western blot assay; assay type: functional, cell-based; settings: dose 25-100 nM
MGC-803 = experiment: Antiproliferative activity against human MGC-803 cell line cells assessed as inhibition of cell proliferation measured after 72 hrs by MTT assay; assay type: functional, cell-based; settings: MGC-803, 72 h
DU-145 [5] = experiment: Induction of apoptosis in human DU-145 cells assessed as viable cells at 1 uM measured after 72 hrs by Annexin V-FITC/propidium iodide staining based flow cytometry method (reference value: 96.3 %); assay type: functional; settings: read-out: Activity
DU-145 [6] = experiment: Antiproliferative activity against human DU-145 cells assessed as reduction in colony formation at 0.25 to 1 uM measured after 6 days by crystal violet staining based colony assay; assay type: functional, cell-based; settings: dose 0.25-1 µM, time 6.0 day
DU-145 [7] = experiment: Induction of apoptosis in human DU-145 cells assessed as necrotic cells at 0.5 uM measured after 72 hrs by Annexin V-FITC/propidium iodide staining based flow cytometry method (reference value: 1.13 %); assay type: functional
[8] = Toxicity in BALB/c-NU mouse assessed as changes in body weight at 12.5 to 25 mg/kg, IG qd for 21 days measured every 2 days; assay type: organism-based; settings: in vivo, po, 504 h, dose 12.5-25 mg/kg, time 21 day
DU-145 [9] = experiment: Induction of apoptosis in human DU-145 cells assessed as late apoptotic cells at 2 uM measured after 72 hrs by Annexin V-FITC/propidium iodide staining based flow cytometry method (reference value: 1.77 %); assay type: functional
PC-3 [10] = experiment: Antiproliferative activity against human PC-3 cells assessed as inhibition of cell proliferation in presence of Fe3+ measured after 72 hrs by MTT assay; assay type: functional, cell-based
DU-145 [11] = experiment: Antiproliferative activity against human DU-145 cell line cells assessed as inhibition of cell proliferation measured after 72 hrs by MTT assay; assay type: functional, cell-based; settings: DU-145, 72 h
DU-145 [12] = experiment: Activation of MAPK signaling in human DU-145 cells assessed as increase in phosphorylated JNK (Thr 183/Tyr 185) at 125 to 500 nM measured by Western blot assay; assay type: cell-based; settings: filed as activator, dose 125-500 nM
DU-145 [13] = experiment: Induction of apoptosis in human DU-145 cells assessed as increase in PARP at 0.5 to 2 uM measured by Western blot assay; assay type: functional, cell-based; settings: dose 0.5-2 µM
PC-3 [14] = experiment: Induction of apoptosis in human PC-3 cells assessed as increase in Bax expression at 25 to 100 nM measured by Western blot assay; assay type: functional, cell-based; settings: dose 25-100 nM
PC-3 [15] = experiment: Induction of ROS generation in human PC-3 cells assessed as intracellular ROS level at 250 nM pretreated with NAC followed by compound treatment measured after 48 hrs by DCFH-DA staining based flowcytometry method (reference value: 49.9 %); assay type: functional
PC-3 [16] = experiment: Induction of ROS generation in human PC-3 cells assessed as intracellular ROS level at 125 nM measured after 48 hrs by DCFH-DA staining based flowcytometry method (reference value: 55.2 %); assay type: functional
DU-145 [17] = experiment: Induction of apoptosis in human DU-145 cells assessed as early apoptotic cells at 2 uM measured after 72 hrs by Annexin V-FITC/propidium iodide staining based flow cytometry method (reference value: 0.835 %); assay type: functional
PC-3 [18] = experiment: Antiproliferative activity against human PC-3 cells assessed as inhibition of cell proliferation measured after 24 to 72 hrs by MTT assay; assay type: functional, cell-based; settings: dose 0.156-20 µM, time 24-72 hrs
DU-145 [19] = experiment: Induction of ROS generation in human DU-145 cells assessed as increase in intracellular ROS level at 250 nM pretreated with NAC followed by compound treatment measured after 48 hrs by DCFH-DA staining based flowcytometry method; assay type: functional, cell-based
PC-3 [20] = experiment: Cell cycle arrest in human PC-3 cells assessed as accumulation of cells in G1/S phase by measuring upregulation of p27 measured after 48 hrs by Western blot assay; assay type: functional, cell-based; settings: dose 125-500 nM
PC-3 [21] = experiment: Induction of apoptosis in human PC-3 cells assessed as early apoptotic cells at 50 nM measured after 72 hrs by Annexin V-FITC/propidium iodide staining based flow cytometry method (Rvb 0.452 %); assay type: functional
DU-145 [22] = experiment: Induction of ROS generation in human DU-145 cells assessed as intracellular ROS level at 3 uM measured after 48 hrs by DCFH-DA staining based flowcytometry method (reference value: 52 %); assay type: functional
PC-3 [23] = experiment: Induction of apoptosis in human PC-3 cells assessed as viable cells at 50 nM measured after 72 hrs by Annexin V-FITC/propidium iodide staining based flow cytometry method (reference value: 97.2 %); assay type: functional; settings: read-out: Activity
PC-3 [24] = experiment: Induction of apoptosis in human PC-3 cells assessed as necrotic cells at 100 nM measured after 72 hrs by Annexin V-FITC/propidium iodide staining based flow cytometry method (reference value: 1.2 %); assay type: functional
PC-3 [25] = experiment: Cytotoxicity against human PC-3 cells assessed as cell viability pre-treated with SB203580 for 4 hrs followed by compound treatment and measured after 72 hrs by MTT assay; assay type: functional, cell-based
DU-145 [26] = experiment: Induction of ROS generation in human DU-145 cells assessed as intracellular ROS level at 6 uM measured after 48 hrs by DCFH-DA staining based flowcytometry method (reference value: 52 %); assay type: functional
[27] = Toxicity in C57BL/6 mouse assessed as effect on kidney at 2 mg/kg, IG measured after 2 weeks by hematoxylin and eosin staining based imaging analysis; assay type: organism-based; settings: in vivo, po, 336 h
PC-3 [28] = experiment: Antitumour activity against human PC-3 cells xenografted in BALB/c-NU mouse assessed as reduction in tumour growth at 12.5 mg/kg, IG qd measured after 21 days relative to control; assay type: functional; design: scale not given: the % may be the effect or the level left; settings: time 21 day
DU-145 [29] = experiment: Induction of apoptosis in human DU-145 cells assessed as viable cells at 0.5 uM measured after 72 hrs by Annexin V-FITC/propidium iodide staining based flow cytometry method (reference value: 96.3 %); assay type: functional; settings: read-out: Activity
DU-145 [30] = experiment: Induction of apoptosis in human DU-145 cells assessed as reduction in Bcl-2 expression at 0.5 to 2 uM measured by Western blot assay; assay type: functional, cell-based; settings: dose 0.5-2 µM
DU-145 [31] = experiment: Induction of apoptosis in human DU-145 cells assessed as early apoptotic cells at 0.5 uM measured after 72 hrs by Annexin V-FITC/propidium iodide staining based flow cytometry method (reference value: 0.835 %); assay type: functional
PC-3 [32] = experiment: Induction of apoptosis in human PC-3 cells assessed as early apoptotic cells at 100 nM measured after 72 hrs by Annexin V-FITC/propidium iodide staining based flow cytometry method (reference value: 0.452 %); assay type: functional

With Cc1ccc(/C=N/NC(=S)Nc2ccc(C(=O)NCCc3c(C)[nH]c4ccccc34)cc2)nc1 the Activity (PC-3 [1]) was “Active”, the Activity (PC-3 [2]) was “Active” and the Activity (PC-3 [3]) was 33.5%. For the same compound, the Activity (PC-3 [4]) was “Active”, the IC50 (MGC-803) was 4.72 µM and the viability at 1 µM (DU-145 [5]) was 62.1%. For the same compound, the inhibition (DU-145 [6]) was “Active”, the Activity (DU-145 [7]) was 1.95% and the Activity [8] was “Non-Toxic”. The Activity (DU-145 [9]) was 38.5%, the inhibition (PC-3 [10]) was “Active” and the IC50 (DU-145 [11]) was 1.44 µM. For the same compound, the Activity (DU-145 [12]) was “Active”, the Activity (DU-145 [13]) was “Active” and the Activity (PC-3 [14]) was “Active”. It also gave an Activity (PC-3 [15]) of 74.5%, an Activity (PC-3 [16]) of 75.4% and an Activity (DU-145 [17]) of 10.5%. The inhibition (PC-3 [18]) was “Dose-dependent effect”, the Activity (DU-145 [19]) was “inactive” and the Activity (PC-3 [20]) was “Active”. The Activity (PC-3 [21]) was 5.6%, the Activity (DU-145 [22]) was 75.1% and the viability at 0.05 µM (PC-3 [23]) was 64%. The Activity (PC-3 [24]) was 9.14%, the inhibition (PC-3 [25]) was “inactive” and the Activity (DU-145 [26]) was 86.2%. The Activity [27] was “Non-Toxic”, the Activity (PC-3 [28]) was 53.6% and the viability at 0.5 µM (DU-145 [29]) was 90.2%. For the same compound, the Activity (DU-145 [30]) was “Active”, the Activity (DU-145 [31]) was 0.41% and the Activity (PC-3 [32]) was 5.76%.
